Measurements published in US10993941B2, “Methods for the administration of certain VMAT2 inhibitors” (Neurocrine Biosciences, Inc., priority 2017, dated 2021).
Entries after “also recorded” stand apart in the source; their conditions may differ.

Legend:
human VMAT1 transporter = target: T1, human VMAT1 transporter (Homo sapiens, UniProt P54219); assay: Uptake in cells expressing VMAT1; assay type: cell-based; settings: concentrations up to 10 μM
T1 construct: expressed in transfected cells
T1 sequence (P54219 1-525): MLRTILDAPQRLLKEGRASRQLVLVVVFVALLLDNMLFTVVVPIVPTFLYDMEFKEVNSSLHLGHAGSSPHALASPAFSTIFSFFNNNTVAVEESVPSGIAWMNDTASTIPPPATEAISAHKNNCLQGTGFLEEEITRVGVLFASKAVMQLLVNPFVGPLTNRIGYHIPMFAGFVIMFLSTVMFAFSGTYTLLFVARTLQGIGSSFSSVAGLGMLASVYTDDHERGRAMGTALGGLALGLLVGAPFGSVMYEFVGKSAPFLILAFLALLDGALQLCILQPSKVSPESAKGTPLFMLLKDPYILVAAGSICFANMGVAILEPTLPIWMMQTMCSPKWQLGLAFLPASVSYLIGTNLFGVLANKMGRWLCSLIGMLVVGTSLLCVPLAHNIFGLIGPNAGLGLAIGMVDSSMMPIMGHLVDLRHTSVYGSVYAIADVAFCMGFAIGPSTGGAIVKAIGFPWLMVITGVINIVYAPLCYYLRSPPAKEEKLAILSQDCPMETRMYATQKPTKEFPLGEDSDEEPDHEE
Protocol: None of the TBZ or VBZ metabolites had any affinity for the monoamine transporters DAT, SERT or NET. To complete the selectivity profile for VMAT2, the functional activity for the human VMAT1 transporter of these compounds was tested in cells expressing VMAT1.

[1] = tested on: dopamine, serotonin and adrenergic receptor subtypes; assay: Detailed radioligand binding assays, monoamine receptor subtypes
ptosis = assay: Ptosis, in vivo surrogate measure
serum prolactin = assay: Prolactin release, in vivo surrogate measure
[2] = both, human, in vivo
Text: (§1) Overall, 24 male and female subjects were enrolled, including 6 subjects with normal hepatic function (Group I), 6 with mild stable hepatic impairment (Group II), 6 with moderate stable hepatic impairment (Group III), and 6 with severe stable hepatic impairment (Group IV). […] All subjects were genotyped to determine their cytochrome P450 2D6 (CYP2D6) status.
(§2) The Child-Pugh scale was used to categorize the degree of hepatic impairment for assignment into the mild (score of 5-6), moderate (score of 7-9), and severe hepatic impairment (score of 10-15) groups.
(§3) After providing informed consent, subjects were screened for eligibility within 28 days of study drug dosing on Day 1. Eligible subjects were admitted to the center in the morning (Day −1), before the dosing day and remained confined in the center for 4 days. Subjects were discharged on Day 4, after the collection of the 72-hour PK sample and safety assessments. On the morning of Days 5 and 6, subjects returned to the center for a PK sample collection and safety assessments; a final study visit was conducted on Day 8 (7 days postdose).
(§4) Safety assessments were conducted at scheduled times throughout the study.

clinical = settings: both, human, in vivo
Text: as §1, §2, §3, §4

[3] = tested on: more than 80 targets including GPCRs, cell-surface monoamine transporters, and ion channels including HERG; assay: Multi-target activity screen (Cerep screen); settings: receptors
[4] = Phase 1 single-dose safety and tolerability (adverse events, laboratory tests, vital signs, ECG); assay type: in vivo, human; settings: NBI-98854 50 mg single dose; for Abdominal discomfort / Adverse events: Overall / Back pain / Constipation / Dyspepsia / Epistaxis / Gastrointestinal Disorders / General Disorders and Administrative Site Conditions / Haemorrhoids / Headache / Infections and Infestations / Musculoskeletal and Connective Tissue Disorders / Nausea / Nervous System Disorders / Rash / Respiratory, Thoracic, and Mediastinal Disorders / Rhinitis / Skin and Subcutaneous Tissue Disorders / Vessel puncture site haematoma: subjects n (%)
VMAT2 [5] = target: T2, VMAT2 (Rattus norvegicus, UniProt Q01827); assay: Inhibition of [3H]-DHTBZ binding to rat striatal membranes; settings: Rat Striatum
T2 construct: from tissue; host or cells: rat forebrain membranes
T2 sequence (Q01827 whole entry): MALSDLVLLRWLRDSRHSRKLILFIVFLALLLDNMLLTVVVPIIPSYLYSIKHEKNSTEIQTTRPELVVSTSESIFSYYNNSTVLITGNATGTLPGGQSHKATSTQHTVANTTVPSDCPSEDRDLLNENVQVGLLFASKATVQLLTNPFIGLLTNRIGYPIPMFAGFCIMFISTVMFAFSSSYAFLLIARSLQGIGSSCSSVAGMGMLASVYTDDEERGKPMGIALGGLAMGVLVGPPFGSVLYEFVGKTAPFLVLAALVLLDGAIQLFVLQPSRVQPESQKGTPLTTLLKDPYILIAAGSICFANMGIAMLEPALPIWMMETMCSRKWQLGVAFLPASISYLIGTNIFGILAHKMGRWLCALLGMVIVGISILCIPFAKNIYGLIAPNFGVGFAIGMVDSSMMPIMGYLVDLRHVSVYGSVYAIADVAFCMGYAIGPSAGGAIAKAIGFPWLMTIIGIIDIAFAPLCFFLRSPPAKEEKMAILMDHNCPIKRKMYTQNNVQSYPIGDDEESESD

VMAT2 [6] = target: T3, VMAT2 (Homo sapiens, UniProt Q05940); assay: Inhibition of [3H]-DHTBZ binding to human platelets
T3 construct: from tissue; host or cells: human platelets (homogenates)
T3 sequence (Q05940 whole entry): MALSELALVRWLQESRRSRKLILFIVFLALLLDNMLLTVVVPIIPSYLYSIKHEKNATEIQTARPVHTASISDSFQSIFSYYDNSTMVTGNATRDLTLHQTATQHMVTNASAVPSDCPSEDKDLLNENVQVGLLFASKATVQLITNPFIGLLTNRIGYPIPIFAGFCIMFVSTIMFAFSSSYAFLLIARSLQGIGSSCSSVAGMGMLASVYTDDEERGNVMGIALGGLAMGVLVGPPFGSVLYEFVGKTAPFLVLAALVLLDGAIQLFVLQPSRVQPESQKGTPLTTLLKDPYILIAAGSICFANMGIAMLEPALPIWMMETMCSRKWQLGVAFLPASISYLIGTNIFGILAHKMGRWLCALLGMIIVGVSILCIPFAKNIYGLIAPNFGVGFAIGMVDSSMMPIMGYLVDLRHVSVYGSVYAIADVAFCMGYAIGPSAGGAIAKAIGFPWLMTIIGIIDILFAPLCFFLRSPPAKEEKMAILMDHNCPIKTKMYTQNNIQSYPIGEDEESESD

Dopamine D1 = Dopamine D1 (Homo sapiens, UniProt P21728); assay: Cerep screen, ligand binding; settings: radioligand binding assays and broad panel screen
Sequence of Dopamine D1 (P21728 whole entry): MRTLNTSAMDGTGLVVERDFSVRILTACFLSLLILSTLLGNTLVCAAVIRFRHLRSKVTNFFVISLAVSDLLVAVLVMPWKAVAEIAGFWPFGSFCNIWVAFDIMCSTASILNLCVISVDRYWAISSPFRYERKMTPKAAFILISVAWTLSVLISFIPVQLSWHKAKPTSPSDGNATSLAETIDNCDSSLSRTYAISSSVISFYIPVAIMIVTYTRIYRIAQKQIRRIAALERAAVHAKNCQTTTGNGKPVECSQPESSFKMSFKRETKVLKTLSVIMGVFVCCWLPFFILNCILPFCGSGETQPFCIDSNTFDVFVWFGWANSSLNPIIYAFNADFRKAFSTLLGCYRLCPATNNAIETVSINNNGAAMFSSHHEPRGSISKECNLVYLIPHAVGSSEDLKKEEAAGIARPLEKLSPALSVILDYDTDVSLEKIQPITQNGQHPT

Dopamine D2(s) = Dopamine D2(s) (Homo sapiens, UniProt P14416); assay: Cerep screen, ligand binding; settings: radioligand binding assays and broad panel screen
Sequence of Dopamine D2(s) (P14416 1-414 isoform P14416-2): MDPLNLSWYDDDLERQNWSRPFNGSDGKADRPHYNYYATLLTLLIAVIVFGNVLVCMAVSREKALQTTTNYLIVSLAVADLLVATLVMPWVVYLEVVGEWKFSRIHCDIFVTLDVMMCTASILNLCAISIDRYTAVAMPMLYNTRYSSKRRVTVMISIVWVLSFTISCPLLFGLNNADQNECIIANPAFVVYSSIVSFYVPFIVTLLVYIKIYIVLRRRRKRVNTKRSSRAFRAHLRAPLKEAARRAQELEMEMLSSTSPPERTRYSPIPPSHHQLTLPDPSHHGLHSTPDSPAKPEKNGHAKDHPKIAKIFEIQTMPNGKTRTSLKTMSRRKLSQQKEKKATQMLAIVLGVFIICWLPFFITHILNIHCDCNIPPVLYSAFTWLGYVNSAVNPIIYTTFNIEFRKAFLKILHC

COc1cc2c(cc1OC)[C@H]1C[C@@H](O)[C@H](CC(C)C)CN1CC2 [NBI-98782, (2R,3R,11bR)-3-isobutyl-9,10-dimethoxy-1,3,4,6,7,11b-hexahydro-2H-pyrido[2,1-a]isoquinolin-2-ol]
inhibition of uptake through VMAT1 (human VMAT1 transporter; listed as R,R,R-DHTBZ): no significant inhibitory activity; also recorded: no significant effect on the uptake of monoamines through VMAT1 | specificity for the VMAT2 transporter versus monoamine receptor subtypes [1]: high specificity | induction of ptosis (ptosis): induced ptosis in an equivalent manner | increase in serum prolactin levels (serum prolactin): induced a similar increase in serum prolactin levels as TBZ | increase in AUC0-∞ [2]: approximately 3.5 fold | increase in t1/2 with hepatic impairment [2]: < 2 fold | increase in tmax with hepatic impairment [2]: < 2 fold | mean Tlag [2]: 0.42 to 0.67 h | MRT (clinical): 36 to 53 h | MRT (clinical; po, 50 mg): 36 h | affinity for more than 80 binding sites [3]: little to no affinity

COc1cc2c(cc1OC)[C@H]1C[C@@H](OC(=O)[C@@H](N)C(C)C)[C@H](CC(C)C)CN1CC2 [NBI-98854, (S)-2-amino-3-methyl-butyric acid (2R,3R,11bR)-3-isobutyl-9,10-dimethoxy-1,3,4,6,7,11b-hexahydro-2H-pyrido[2,1-a]isoquinolin-2-yl ester]
Abdominal discomfort ([4]; Mild (N = 6)): 0 | Adverse events: Overall ([4]; Mild (N = 6)): 2 (33.3%) | Back pain ([4]; Mild (N = 6)): 0 | Constipation ([4]; Mild (N = 6)): 0 | Dyspepsia ([4]; Mild (N = 6)): 0 | Epistaxis ([4]; Mild (N = 6)): 0 | Gastrointestinal Disorders ([4]; Mild (N = 6)): 1 (16.7%) | General Disorders and Administrative Site Conditions ([4]; Mild (N = 6)): 0 | Haemorrhoids ([4]; Mild (N = 6)): 1 (16.7%) | Headache ([4]; Mild (N = 6)): 1 (16.7%) | Infections and Infestations ([4]; Mild (N = 6)): 1 (16.7%) | Musculoskeletal and Connective Tissue Disorders ([4]; Mild (N = 6)): 0 | Nausea ([4]; Mild (N = 6)): 0 | Nervous System Disorders ([4]; Mild (N = 6)): 1 (16.7%) | Rash ([4]; Mild (N = 6)): 0 | Respiratory, Thoracic, and Mediastinal Disorders ([4]; Mild (N = 6)): 0 | Rhinitis ([4]; Mild (N = 6)): 1 (16.7%) | Skin and Subcutaneous Tissue Disorders ([4]; Mild (N = 6)): 0 | Vessel puncture site haematoma ([4]; Mild (N = 6)): 0 | Abdominal discomfort ([4]; Moderate (N = 6)): 0 | Adverse events: Overall ([4]; Moderate (N = 6)): 2 (33.3%) | Back pain ([4]; Moderate (N = 6)): 1 (16.7%) | Constipation ([4]; Moderate (N = 6)): 1 (16.7%) | Dyspepsia ([4]; Moderate (N = 6)): 0 | Epistaxis ([4]; Moderate (N = 6)): 0 | Gastrointestinal Disorders ([4]; Moderate (N = 6)): 1 (16.7%) | General Disorders and Administrative Site Conditions ([4]; Moderate (N = 6)): 0 | Haemorrhoids ([4]; Moderate (N = 6)): 0 | Headache ([4]; Moderate (N = 6)): 0 | Infections and Infestations ([4]; Moderate (N = 6)): 0 | Musculoskeletal and Connective Tissue Disorders ([4]; Moderate (N = 6)): 1 (16.7%) | Nausea ([4]; Moderate (N = 6)): 0 | Nervous System Disorders ([4]; Moderate (N = 6)): 0 | Rash ([4]; Moderate (N = 6)): 1 (16.7%) | Respiratory, Thoracic, and Mediastinal Disorders ([4]; Moderate (N = 6)): 0 | Rhinitis ([4]; Moderate (N = 6)): 0 | Skin and Subcutaneous Tissue Disorders ([4]; Moderate (N = 6)): 1 (16.7%) | Vessel puncture site haematoma ([4]; Moderate (N = 6)): 0 | Abdominal discomfort ([4]; Normal (N = 6)): 1 (16.7%) | Adverse events: Overall ([4]; Normal (N = 6)): 2 (33.3%) | Back pain ([4]; Normal (N = 6)): 0 | Constipation ([4]; Normal (N = 6)): 0 | Dyspepsia ([4]; Normal (N = 6)): 0 | Epistaxis ([4]; Normal (N = 6)): 0 | Gastrointestinal Disorders ([4]; Normal (N = 6)): 1 (16.7%) | General Disorders and Administrative Site Conditions ([4]; Normal (N = 6)): 1 (16.7%) | Haemorrhoids ([4]; Normal (N = 6)): 0 | Headache ([4]; Normal (N = 6)): 0 | Infections and Infestations ([4]; Normal (N = 6)): 0 | Musculoskeletal and Connective Tissue Disorders ([4]; Normal (N = 6)): 0 | Nausea ([4]; Normal (N = 6)): 0 | Nervous System Disorders ([4]; Normal (N = 6)): 0 | Rash ([4]; Normal (N = 6)): 0 | Respiratory, Thoracic, and Mediastinal Disorders ([4]; Normal (N = 6)): 0 | Rhinitis ([4]; Normal (N = 6)): 0 | Skin and Subcutaneous Tissue Disorders ([4]; Normal (N = 6)): 0 | Vessel puncture site haematoma ([4]; Normal (N = 6)): 1 (16.7%) | Abdominal discomfort ([4]; Severe (N = 6)): 0 | Adverse events: Overall ([4]; Severe (N = 6)): 2 (33.3%) | Back pain ([4]; Severe (N = 6)): 0 | Constipation ([4]; Severe (N = 6)): 0 | Dyspepsia ([4]; Severe (N = 6)): 1 (16.7%) | Epistaxis ([4]; Severe (N = 6)): 1 (16.7%) | Gastrointestinal Disorders ([4]; Severe (N = 6)): 1 (16.7%) | General Disorders and Administrative Site Conditions ([4]; Severe (N = 6)): 0 | Haemorrhoids ([4]; Severe (N = 6)): 0 | Headache ([4]; Severe (N = 6)): 0 | Infections and Infestations ([4]; Severe (N = 6)): 0 | Musculoskeletal and Connective Tissue Disorders ([4]; Severe (N = 6)): 0 | Nausea ([4]; Severe (N = 6)): 1 (16.7%) | Nervous System Disorders ([4]; Severe (N = 6)): 0 | Rash ([4]; Severe (N = 6)): 0 | Respiratory, Thoracic, and Mediastinal Disorders ([4]; Severe (N = 6)): 1 (16.7%) | Rhinitis ([4]; Severe (N = 6)): 0 | Skin and Subcutaneous Tissue Disorders ([4]; Severe (N = 6)): 0 | Vessel puncture site haematoma ([4]; Severe (N = 6)): 0 | intensity of TEAEs judged by the investigator ([4]; all TEAEs): mild in intensity | changes in clinical laboratory tests, vital signs measurements, or ECG parameters ([4]; all groups): no clinically significant changes | deaths, serious or severe TEAEs ([4]; all groups): No deaths, serious or severe treatment-emergent adverse events (TEAEs) were reported; also recorded: No deaths, serious TEAEs, or discontinuations due to an AE were reported | discontinuation due to a TEAE ([4]; all groups): no subject discontinued the study due to a TEAE | tolerability ([4]; normal subjects and subjects with hepatic impairment): well-tolerated | Treatment-related AEs (possibly or definitely related to study drug) ([4]; of 24 subjects): 4 subjects | Affinity Relative to R,R,R-DHTBZ (VMAT2 [5]): 39 | Affinity Relative to R,R,R-DHTBZ (VMAT2 [6]): 45 | inhibition of uptake through VMAT1 (human VMAT1 transporter; listed as VBZ): no significant inhibitory activity; also recorded: no significant effect on the uptake of monoamines through VMAT1 | induction of ptosis (ptosis): induced ptosis in an equivalent manner | increase in serum prolactin levels (serum prolactin): to a lesser extent | increase in Cmax [2]: 2-3 fold | increase in t1/2 with hepatic impairment [2]: < 2 fold | increase in tmax with hepatic impairment [2]: < 2 fold | mean Tlag [2]: 0.17 to 0.38 h | MRT (clinical): 23 to 30 h | half-life (clinical; mean t1/2): 21 to 22 h | MRT (clinical; po, 50 mg): 24 h | Tmax (clinical; po, 50 mg, TMAX): 1.1 h | Vd/F (clinical; po, 50 mg, Vz/F): 600 L | half-life (clinical; po, 50 mg, t1/2): 28 h | affinity for more than 80 binding sites [3]: little to no affinity

COc1cc2c(cc1OC)[C@H]1C[C@@H](OC(=O)[C@@H](N)C(C)(C)O)[C@H](CC(C)C)CN1CC2 [NBI-136110]
increase in AUC0-∞ [2]: < 2 fold | increase in Cmax [2]: < 2 fold | increase in t1/2 with hepatic impairment [2]: < 2 fold | increase in tmax with hepatic impairment [2]: < 2 fold | mean Tlag [2]: 0.33 to 0.54 h | mean molar ratio of plasma AUC0-∞ for NBI-136110 versus NBI-98854 [2]: 28.3-37.3% | MRT (clinical): 51 to 81 h | half-life (clinical; mean t1/2): 33 to 36 h | Tmax (clinical; median tmax): 2.5 to 4 h | AUC(0-t) (clinical; po, 50 mg, AUC0-24): 363 ng·h/mL | AUC(0-t) (clinical; po, 50 mg, AUC0-TLAST): 928 ng·h/mL | AUC(0-inf) (clinical; po, 50 mg, AUC0-∞): 1030 ng·h/mL | Cmax (clinical; po, 50 mg, CMAX): 32.5 ng/mL | MRT (clinical; po, 50 mg): 53 h | Tmax (clinical; po, 50 mg, TMAX): 4 h | half-life (clinical; po, 50 mg, t1/2): 57 h | affinity for more than 80 binding sites [3]: little to no affinity

COc1cc2c(cc1OC)[C@@H]1C[C@@H](O)[C@@H](CC(C)C)CN1CC2 [R,S,S-DHTBZ]
interaction with D1 receptors (Dopamine D1): interact with D1 and D2 receptors | interaction with D2 receptors (Dopamine D2(s)): interact with D1 and D2 receptors

COc1cc2c(cc1OC)[C@@H]1C[C@H](O)[C@@H](CC(C)C)CN1CC2 [S,S,S-DHTBZ]
interaction with D1 receptors (Dopamine D1): interact with D1 and D2 receptors | interaction with D2 receptors (Dopamine D2(s)): interact with D1 and D2 receptors

COc1cc2c(cc1OC)C1CC(=O)C(CC(C)C)CN1CC2 (centres unmarked) [TBZ, reference compound]
inhibition of uptake through VMAT1 (human VMAT1 transporter): no significant inhibitory activity; also recorded: no significant effect on the uptake of monoamines through VMAT1 | induction of ptosis (ptosis): induced ptosis in an equivalent manner | increase in serum prolactin levels (serum prolactin): increase in serum prolactin levels

COC(=O)[C@H]1[C@H]2C[C@@H]3c4[nH]c5cc(OC)ccc5c4CCN3C[C@H]2C[C@@H](OC(=O)c2cc(OC)c(OC)c(OC)c2)[C@@H]1OC [reserpine, reference compound]
inhibition of uptake through VMAT1 (human VMAT1 transporter): substantially inhibited uptake through VMAT1
